According to US20160310445A1, “PREVENTION AND COUNTERACTION OF DIET-INDUCED THROMBOSIS RISK” (VITAK BV, priority 2013, published 2016):

Columns and labels:
[1] = system: Endogenous Thrombin Potential (thrombin generation in plasma); assay: ETP in renal transplant recipients treated with menaquinone-7 (Experiment 5); type: in vivo, renal transplant recipients (human)
Excerpt: (§1) There are several ways in which thrombosis tendency or increased thrombosis risk may be established, but most of them are based on one of the two following principles: • a) Citrated plasma is collected by venipuncture and clotting is induced by adding tissue factor (thromboplastin) and recalcification. The time required to clot is compared to the clotting time of a reference sample and expressed as International Normalized Ratio (INR). This method is sensitive for monitoring patients during anticoagulation treatment (INR>2.0), but insensitive for INR values<1.0 (increased thrombosis risk). • b) Citrated plasma is collected by venipuncture, defibrinated and the conversion of prothrombin into thrombin is initiated by adding tissue factor and calcium. The total amount of thrombin generated in a certain time period is expressed as Endogenous Thrombin Potential (ETP), whereas also other kinetic characteristics (thrombin peak height, time to peak) provide additional information (E. De Smedt, R. Al Dieri, H. M. Spronk, K. Hamulyak, H. ten Cate, H. C. Hemker: Thromb. Haemost. 2008; 100:343-349).
(§2) The ETP reflects the amount of thrombin that can be formed in a period of time following activation of platelet-poor plasma. The amount of thrombin generated is monitored using a chromogenic substrate for thrombin, and results from three independent principles: the circulating concentration of coagulation factors, the concentration of coagulation inhibitors (proteins C and S) and the concentration of thrombin inhibitors such as antithrombin III. Typical ETP curves show a rapid increase of thrombin formed in the first 6-8 minutes after activation, followed by a decline caused by thrombin inhibitors such as antithrombin III. […] Generally, the ETP is expressed as the area under the curve during the first 30 minutes of thrombin formation. […]
The RTR were treated with the following doses of vitamin K2 (menaquinone-7) for 3 months: 0, 90, 180 and 360 μg/day. […] Vitamin K status was assessed by measuring the ucOC/tOC ratio and the thrombosis tendency was estimated from the ETP values.

[2] = system: uncarboxylated osteocalcin relative to total osteocalcin; assay: Vitamin K status by ucOC/tOC ratio in renal transplant recipients treated with menaquinone-7 (Experiment 5); type: in vivo, renal transplant recipients (human)
Excerpt: In yet a further aspect, vitamin K used according to the present invention is to be administered to specific groups of subjects. As already stated supra, mammalian subjects according to the invention are in particular human subjects. Vitamin K may, in the context of the invention, be administered to healthy or apparently healthy human subjects, preferably healthy or apparently healthy adult human subjects, which may benefit from vitamin K supplementation. In particular, these subjects are characterized in that they have a regular vitamin K status and a normal thrombosis risk, particularly a normal venous thrombosis risk. The vitamin K status may e.g. be determined using the ucOC/tOC ratio, i.e. the amount of circulating uncarboxylated osteocalcin (ucOC) relative to the total amount of osteocalcin (tOC). The vitamin K status may also be determined using other methods, e.g. the carboxylation degree of the vascular Gla-protein MGP, but since this assay is not yet commercially available, the ucOC/tOC ratio will be used throughout this document.
In the present study, a group of 32 RTR were randomly subdivided into 4 groups of 8 subjects each and compared with 24 age- and sex-matched healthy volunteers.
The RTR were treated with the following doses of vitamin K2 (menaquinone-7) for 3 months: 0, 90, 180 and 360 μg/day. Blood was taken at baseline and at the end of the study to prepare EDTA plasma and serum. Vitamin K status was assessed by measuring the ucOC/tOC ratio and the thrombosis tendency was estimated from the ETP values.

[3] = system: Endogenous Thrombin Potential (thrombin generation in plasma); assay: ETP at baseline and after one year of vitamin K1 by tertile of vitamin K status (Experiment 3); type: in vivo, postmenopausal women; settings: 1 mg/day, group with the highest ucOC/tOC ratio (0.20, n=19), only in this group
Excerpt: as §1, with “This method is sensitive for monitoring patients during anticoagulation treatment (INR>2.0), but insensitive for INR values<1.0 (increased thrombosis risk). • b) Citrated plasma is collected by venipuncture, defibrinated and the conversion of prothrombin into thrombin is initiated by adding tissue factor and calcium.” left out
as §2, with “III.” for “III. Typical ETP curves show a rapid increase of thrombin formed in the first 6-8 minutes after activation, followed by a decline caused by thrombin inhibitors such as antithrombin III.”

| SMILES | change of ETP with dose ([1]; 0, 90, 180 and 360 μg/day, 3 months, FIG. 5B) | decline of ETP compared to baseline ([1]; 180 and 360 μg/day, 3 months) | difference in ETP between the 0 μg/day and the 360 μg/day intake groups ([1]; t=3 months) | change of ucOC/tOC ratio with dose ([2]; 0, 90, 180 and 360 μg/day, 3 months, FIG. 5A) | decline of ucOC/tOC ratio compared to baseline ([2]; 180 and 360 μg/day, 3 months) | difference in ucOC/tOC ratio between the 0 μg/day and the 360 μg/day intake groups ([2]; t=3 months) | change of ETP after vitamin K supplementation [3] |
| --- | --- | --- | --- | --- | --- | --- | --- |
| CC(C)=CCC/C(C)=C/CC/C(C)=C/CC/C(C)=C/CC/C(C)=C/CC/C(C)=C/CC/C(C)=C/CC1=C(C)C(=O)c2ccccc2C1=O [menaquinone-7] | decreased at increasing doses | statistically significant | significant | decreased in a dose-dependent way | statistically significant | significant |  |
| CC1=C(C/C=C(\C)CCC[C@H](C)CCC[C@H](C)CCCC(C)C)C(=O)c2ccccc2C1=O [vitamin K1, phylloquinone] |  |  |  |  |  |  | declined significantly |
